Patent US8658668B2, “PI3 kinase/mTOR dual inhibitor” (Eli Lilly and Company, priority 2011, dated 2014)

What was measured:
[1] = test system: GXF 97 human tumor xenograft cells; assay: Oncotest tumor clonogenic assay, GXF 97; assay type: cell-based; conditions: colony formation, Gastric GXF 97, adeno carcinoma, wd, read-out: Absolute IC50
[2] = test system: LXFE 211 human tumor xenograft cells; assay: Oncotest tumor clonogenic assay, LXFE 211; assay type: cell-based; conditions: colony formation, NSCLC LXFE 211, squamous cell carcinoma, ud, read-out: Absolute IC50
[3] = test system: SJSA-1; assay: Cell proliferation assay (CellTiter-Glo), SJSA-1; assay type: cell-based; conditions: Homo sapiens, SJSA-1, 72 h
Method: (§1) Plate cells in a 96-well plate at 2000 cells/well in 100 μL of cell specific medium (for U87MG use DMEM, 10% FBS, 25 mM 4-(2-hydroxyethyl)-1-piperazineethanesulfonic acid (HEPES), 1.0 mM sodium pyruvate, and 0.1 mM Non Essential Amino Acids (ATCC Cat.#30-2002); for HT1080 use Eagle's MEM, 10% FBS (ATCC Cat.#30-2003); for H1975, A2780, SJSA-1 and 786-O use RPMI 1640, 10% FBS (ATCC Cat.#30-2001); for A204 use McCoy's 5A, 10% FBS (ATCC Cat.#30-2007) except in column 1 use medium only as the blank control. Incubate the plates overnight at 37° C. and 5% CO2. On the next day, prepare compound stocks at 1 mM in DMSO and serially dilute in DMSO in a 96-well round bottom polypropylene plate. Assay compounds at 10 concentrations in duplicate, 4 compounds per plate.
(§2) Transfer 4 μL of the DMSO serial dilutions to a 96 well plate and add 196 μL of culture medium to create a 10× stock for dosing. Gently transfer 11 μL of each dosing stock to the corresponding well of the cell plate resulting in a 0.2% DMSO concentration and a 111 μL final volume. […]
(§3) Prepared the CellTiter-Glo reagent (Promega, Cat: G7571) and add 100 µL to each well after the incubation is complete, homogenize the cells by mixing on an orbital shaker for 2 min and then incubate at RT for 10 min to allow the luminescent signal to stabilize. Record the luminescent raw data with a Wallac Victor V plate reader. […]

[4] = test system: CXF 280 human tumor xenograft cells; assay: Oncotest tumor clonogenic assay, CXF 280; assay type: cell-based; conditions: colony formation, Colon CXF 280, adeno carcinoma, pd, read-out: Absolute IC50
[5] = test system: MEXF 462 human tumor xenograft cells; assay: Oncotest tumor clonogenic assay, MEXF 462; assay type: cell-based; conditions: colony formation, Melanoma MEXF 462, amelanotic melanoma, md, read-out: Absolute IC50
[6] = test system: PAXF 736 human tumor xenograft cells; assay: Oncotest tumor clonogenic assay, PAXF 736; assay type: cell-based; conditions: PAXF736, colony formation, Pancreas PAXF 736, adeno carcinoma, pd, read-out: Absolute IC50
[7] = test system: CXF 1729 human tumor xenograft cells; assay: Oncotest tumor clonogenic assay, CXF 1729; assay type: cell-based; conditions: colony formation, Colon CXF 1729, adeno carcinoma, wd, read-out: Absolute IC50
[8] = test system: LXFA 1041 human tumor xenograft cells; assay: Oncotest tumor clonogenic assay, LXFA 1041; assay type: cell-based; conditions: colony formation, NSCLC LXFA 1041, adeno carcinoma, md, read-out: Absolute IC50
[9] = test system: MEXF 276 human tumor xenograft cells; assay: Oncotest tumor clonogenic assay, MEXF 276; assay type: cell-based; conditions: colony formation, Melanoma MEXF 276, amelanotic melanoma, md, read-out: Absolute IC50
[10] = test system: human glioblastoma cells U87MG; assay: Xenograft tumor model, U87MG; assay type: in vivo, mouse; conditions: oral gavage
Method: Expand human glioblastoma cells U87MG and human renal carcinoma cells 786-O, in culture, harvest and inject subcutaneously onto the rear flank of athymic nude mice. Expand human non-small cell lung cancer cells NCI-H1975 in culture, harvest and inject subcutaneously onto the rear flank of CD-1 nu/nu mice. Prepare test compound in an appropriate vehicle and administer by oral gavage when tumors are established (7-21 days after implant). Tumor response is determined by tumor volume measurement performed twice a week during the course of treatment. Body weight is taken as a general measurement of toxicity.

[11] = test system: GXF 1172 human tumor xenograft cells; assay: Oncotest tumor clonogenic assay, GXF 1172; assay type: cell-based; conditions: colony formation, Gastric GXF 1172, signet-ring cell carcinoma, pd, read-out: Absolute IC50
[12] = test system: SXF 1301 human tumor xenograft cells; assay: Oncotest tumor clonogenic assay, SXF 1301; assay type: cell-based; conditions: colony formation, Sarcoma SXF 1301, malignant rhabdomyosarcoma, ud, read-out: Absolute IC50
[13] = test system: SXF 627 human tumor xenograft cells; assay: Oncotest tumor clonogenic assay, SXF 627; assay type: cell-based; conditions: colony formation, Sarcoma SXF 627, pleomorphic rhabdomyosarcoma, pd, read-out: Absolute IC50
[14] = test system: LXFL 430 human tumor xenograft cells; assay: Oncotest tumor clonogenic assay, LXFL 430; assay type: cell-based; conditions: colony formation, NSCLC LXFL 430, large cell lung carcinoma, pd, read-out: Absolute IC50
[15] = Pharmacokinetic properties in dogs; assay type: in vivo, dog; conditions: for AUC: both sexes, beagle, dog, plasma, oral gavage, HEC suspension
Method: The range of administered doses is between 1 and 12 mg/kg in an HEC suspension.
Blood samples are collected into tubes containing potassium ethylenediaminetetraacetic acid from each dog at 0 (pre-dose), 0.5, 1, 2, 4, 8, and 24 hours post dose. Some studies also include samples collected at 0.25 hr and 12 hr time points. These samples are centrifuged to obtain plasma, which is subsequently frozen prior to analysis. […] The standard curves range from 1 to 5000 ng/mL. Plasma concentrations above the upper limit of quantitation are determined by dilution.

[16] = test system: CXF 243 human tumor xenograft cells; assay: Oncotest tumor clonogenic assay, CXF 243; assay type: cell-based; conditions: colony formation, Colon CXF 243, adeno carcinoma, pd, read-out: Absolute IC50
[17] = test system: OVXF 899 human tumor xenograft cells; assay: Oncotest tumor clonogenic assay, OVXF 899; assay type: cell-based; conditions: colony formation, Ovary OVXF 899, pap. serous adeno carcinoma, md, read-out: Absolute IC50
[18] = test system: U87MG; assay: Cell proliferation assay (CellTiter-Glo), U87MG; assay type: cell-based; conditions: Homo sapiens, U-87 MG, 96 h
Method: as §1, §2, §3

## CO[C@@H](C)Cn1c(=O)n(C)c2cnc3ccc(-c4cncc(C(C)(C)O)c4)cc3c21 [Example 1, 8-[5-(1-Hydroxy-1-methylethyl)pyridin-3-yl]-1-[(2S)-2-methoxypropyl]-3-methyl-1,3-dihydro-2H-imidazo[4,5-c]quinolin-2-one]
[1]
  IC50: 101 nM
[2]
  IC50: 108 nM
[3]
  IC50: 96 nM
[4]
  IC50: 7 nM
[5]
  IC50: 156 nM
[6]
  IC50: 174 nM
[7]
  IC50: 176 nM
[8]
  IC50: 205 nM
[9]
  IC50: 157 nM
[10]; 3 mg/kg BID
  % TGI: 38.6%
[10]; 6 mg/kg BID
  % TGI: 57.7%
[10]; 10 mg/kg BID
  % TGI: 86.1%
[10]; 12 mg/kg QD
  % TGI: 53.4%
[11]
  IC50: 141 nM
[12]
  IC50: > 200 nM
[13]
  IC50: 95 nM
[14]
  IC50: 56 nM
[15]; 1 mg/kg, 10 animals
  AUC: 1160 ng·h/mL
[15]; 3 mg/kg, 10 animals
  AUC: 3780 ng·h/mL
[15]; 4.5 mg/kg, 2 animals
  AUC: 5920 ng·h/mL
[15]; 6 mg/kg, 2 animals
  AUC: 9620 ng·h/mL
[15]; 9 mg/kg, 2 animals
  AUC: 10800 ng·h/mL
[15]; 12 mg/kg, 2 animals
  AUC: 19200 ng·h/mL
[15]; oral, 1 to 12 mg/kg
  correlation of determination R^2, linear regression of the mean AUC values for each dose: 0.96
[16]
  IC50: 237 nM
[17]
  IC50: 590 nM
[18]
  IC50: 74 nM
